Measurements: patent US7625875B2 (priority 2002, dated 2009)
Values after ≈ are worked out from the molar mass of the structure shown. Values joined by “and” are separate entries in the source; they are usually repeats but may differ in a detail not shown here. Identical values can stand only once. Like-named read-outs stand apart in the source and are kept apart here.

Columns and labels:
in vitro [1] = settings: hamster
HIV = assay type: cell-based
[2] = test system: BVDV (strain I-N-dIns), noncytopathic; assay type: cell-based, bovine viral diarrhea virus
[3] = test system: human cytidine/deoxycytidine deaminase enzymes; settings: 37° C.
Punta Toro A = assay: organism not typed; assay type: cell-based; settings: LLC-MK2
Adenovirus type 1 = assay: Antiviral activity, Adenovirus type 1 (A549); assay type: cell-based; settings: Human mastadenovirus C
Influenza A/H3N2 = assay: Antiviral activity, Influenza A/H3N2 (MDCK); assay type: cell-based; settings: Influenza A virus
[4] = test system: MEF mouse embryo fibroblasts; assay: Cytotoxicity assay, MEF; settings: MCMV (MEF) line
Parainfluenza type 3 = assay: Antiviral activity, Parainfluenza type 3 (MA-104); assay type: cell-based; settings: MA104
REO-1 = assay: microbe, parasite or virus in culture; assay type: cell-based, double-stranded RNA Reovirus; settings: Reovirus sp., read-out: REO
Rhinovirus type 2 = assay: microbe, parasite or virus in culture; assay type: cell-based; settings: Enterovirus
HepG2 cells [5] = assay: Cellular DNA synthesis, [3H]-thymidine incorporation; settings: read-out: CC50 DNA ([3H]Thymidine); 50% reduction of thymidine incorporation into cellular DNA
Huh7 cells = assay: Mitochondria toxicity assay, lactic acid production, Huh7; settings: 4 days
CVB-2 = assay: organism not typed; assay type: cell-based, Coxsackie B-2 virus; settings: read-out: EC50 CVB-2
[6] = test system: KB, human nasopharyngeal carcinoma; assay: Cytotoxicity, KB; assay type: cell-based
[7] = test system: BVDV New York-1 (NY-1) strain; assay: MDBK cells persistently infected with BVDV strain New York-1, virus titer; assay type: cell-based, bovine viral diarrhea virus; settings: 8 μM alone, after one passage
HepG2 cells [8] = assay: Mitochondria toxicity assay, lactic acid production, HepG2; settings: for L-Lactate (% of Control): 4 days
[9] = Stability in human plasma; settings: 37° C.
Influenza A/H1N1 = assay: Antiviral activity, Influenza A/H1N1 (MDCK); assay type: cell-based; settings: Influenza A virus
[10] = test system: HepG2 human hepatoma cell line; assay: Cytotoxicity (cell proliferation) assay, HepG2; settings: cells grown on collagen coated plates for 4 or 10 d
[11] = Cytotoxicity (cell proliferation) assay, HepG2; settings: human, HepG2 cells
[12] = test system: MA-104, Rhesus monkey kidney cells; assay: Cytotoxicity, MA-104; settings: Parainfluenza type 3 line
West Nile Virus = assay: microbe, parasite or virus in culture; assay type: cell-based; settings: BHK
VEE = assay: microbe, parasite or virus in culture; assay type: cell-based; settings: Venezuelan equine encephalitis virus, Vero
VZV = assay: Antiviral activity, VZV (HFF); assay type: cell-based; settings: Human alphaherpesvirus 3
HepG2 cells [13] = assay: Transmission electron microscopy of mitochondrial ultrastructure
BVDV RNA = assay: Intracellular BVDV RNA by Real Time RT-PCR in de novo-infected MDBK cells; assay type: cell-based, bovine viral diarrhea virus
[14] = test system: MT-4 human T-lymphocyte cells; settings: human
[15] = test system: HeLa, human cervical adenocarcinoma cells; assay: Cytotoxicity, HeLa-Ohio; assay type: cell-based; settings: Rhinovirus type 14 line
HBV = assay type: cell-based
Influenza B = assay: Antiviral activity, Influenza B (MDCK); assay type: cell-based; settings: Influenza B virus
BVDV (strain NADL) = assay: BVDV cell protection assay (CPA); assay type: cell-based; settings: Bovine viral diarrhea virus isolates and strains, MOI of BVDV 0.04
DENV-2 = assay: microbe, parasite or virus in culture; assay type: cell-based; settings: Dengue virus, DENV2, read-out: composite EC50 range
HCMV = assay: Antiviral activity, HCMV (HFF); assay type: cell-based; settings: Human betaherpesvirus 5
in vitro [16] = settings: African green monkey
HepG2 cells [17] = assay: Incorporation of drug into cellular RNA and DNA; settings: 10 μM [3H] drug, 30 hours
Sb-1 = assay: organism not typed; assay type: cell-based, Sabin type 1 poliomyelitis virus
HepG2 cells [18] = assay: Mitochondrial DNA content; assay type: cell-based, human
Description: To assess the potential of mCyd to produce mitochondrial toxicity, several in vitro studies were conducted using the human hepatoma cell lines HepG2 or Huh7.
The significance of this finding is unclear, particularly since mCyd is unlikely to attain a plasma concentration of 50 μM in the clinic. For comparison, lactic acid production increases by 100% over control cells in cells treated with 10 μM FIAU (Cui L, Yoon, et al. J. Clin. Invest. 1995; 95:555-563).

CC1(O)C(O)C(CO)OC1n1ccc(N)nc1=O (stereo not shown) [mCyd, 4-Amino-1-(3,4-dihydroxy-5-hydroxymethyl-3-methyl-tetrahydro-furan-2-yl)-1H-pyrimidine-2-one]
CC50 (in vitro [1]): > 100 µM
activity against HIV (HIV): no activity
reduction of BVDV titer ([2]; 4 μM, one cell passage (3 days)): approximately 3 log10
reduction of virus production ([2]; 8 μM): 6.2 log10
virus production ([2]; 16 μM, within two cell passages, from more than 6 logs of virus per ml): undetectable levels
in vitro stability, deamination to mUrd [3]: remained essentially unchanged
EC50 (Punta Toro A): > 200 µM
EC50 (Adenovirus type 1): > 200 µM
EC50 (Influenza A/H3N2): > 20 µM
CC50 [4]: 2.4 µM
EC50 (Parainfluenza type 3): > 200 µM
EC50 (REO-1): 13 µM
EC50 (Rhinovirus type 2): 2 to 10 µM
CC50 (HepG2 cells [5]): 112 ± 34.5 µM
L-Lactate (% of Control) (Huh7 cells; 10 μM): 98.0 ± 12.3 % of Control
L-Lactate (% of Control) (Huh7 cells; 50 μM): 97.1 ± 10.1 % of Control
EC50 (CVB-2): 11 µM
CC50 ([6]; Rhinovirus type 2 line, read-out: CC50): > 200 µM
CC50 ([6]; Rhinovirus type 5 line): 20 to 30 µg/mL
reduction of viral titers [7]: approximately 3.5 log10
L-Lactate (% of Control) (HepG2 cells [8]; 10 μM): 98.6 ± 7.3 % of Control
increase in lactic acid production (HepG2 cells [8]; 50 μM): 38%
L-Lactate (% of Control) (HepG2 cells [8]; 50 μM): 138.0 ± 8.9 % of Control
in vitro stability, deamination to mUrd [9]: remained essentially unchanged
EC50 (Influenza A/H1N1): > 200 µM
CC50 [10]: > 200 µM
CC50 [11]: 200 µM
CC50 [12]: > 200 µM
EC50 (West Nile Virus): 63 to 97 µM
EC50 (VEE): 1.3 to 45 µM
EC50 (VZV): > 20 µg/mL
Electron Microscopy, Lipid Droplet Form. (HepG2 cells [13]; 10 μM, 14 days): Negative
Electron Microscopy, Mito. Morphol. (HepG2 cells [13]; 10 μM, 14 days): Normal^d
cells in which 1 to 2 mitochondria out of an average of 25 appeared enlarged (HepG2 cells [13]; 14 days of exposure to 10 μM): 17%
effect on the level of the rig S15 cellular mRNA control (BVDV RNA): No effect
maximum viral RNA reduction (BVDV RNA; highest inhibitor concentration tested (125 μM)): 4 log10
CC50 [14]: 34 µM
CC50 [15]: 20->100 μg/mL
activity against HBV (HBV): no activity
EC50 (Influenza B): > 200 µM
EC50 (BVDV (strain NADL)): 0.5 µM
EC50 (DENV-2): 59 to 95 µM
EC50 (HCMV): 9.9 to 15.6 µg/mL (≈ 38.5 to 60.6 µM)
CC50 (in vitro [16]): > 100 µM
Incorporated drug amount, DNA (HepG2 cells [17]): 0.0013 pmole/μg DNA and 0.0013 ± 0.0008^a pmole/μg DNA
Incorporated drug amount, RNA (HepG2 cells [17]): 0.0014 pmole/μg RNA and 0.0014 ± 0.0008^a pmole/μg RNA
EC50 (Sb-1; read-out: EC50 Sb-1): 6 µM
EC50 (Sb-1; read-out: Sb-1): 11.5 µM
mtDNA/nuclear DNA (% of Control) (HepG2 cells [18]; 10 μM, 6 day treatment): 117.3 ± 17.5 % of Control
mtDNA/nuclear DNA (% of Control) (HepG2 cells [18]; 10 μM, 14 day treatment): 99.7 ± 23.9 % of Control
mtDNA/nuclear DNA (% of Control) (HepG2 cells [18]; 50 μM, 6 day treatment): 158.2 ± 17.5 % of Control
mtDNA/nuclear DNA (% of Control) (HepG2 cells [18]; 50 μM, 14 day treatment): 83.0 ± 15.5 % of Control
